This is an account of results in patent US10895019B2, “Encoded self-assembling chemical libraries (ESACHEL)” (Eidgenoessische Technische Hochschule Zurich, priority 2002, dated 2021).

In one experiment the target is human carbonic anhydrase. Briefly: carbonic anhydrase activity assay with substrate 4-Nitrophenylacetate (Pocker and Stone). It is filed as biochemical. The note with it: absorption at 400 nm, read-out: IC50 towards human carbonic anhydrase. Here is the method:
We measured the inhibitory concentration 50 [IC50] of 4-sulfonamido benzoic acid propylamide using an activity assay described by Pocker and Stone [(1967), Biochemistry 6, 668-678]. In short, we incubated carbonic anhydrase in separate wells of a transparent 96 well microtiter plate with different concentrations of the inhibitor and the substrate 4-Nitrophenylacetate. The proceeding of the reaction was monitored at the increase of absorption at 400 nm due to formation of the product 4-nitrophenol.

The target of a further experiment is streptavidin (Streptomyces avidinii, UniProt P22629). The note with it: Green (1966); cited from earlier work.
streptavidin, sequence (P22629 25-183): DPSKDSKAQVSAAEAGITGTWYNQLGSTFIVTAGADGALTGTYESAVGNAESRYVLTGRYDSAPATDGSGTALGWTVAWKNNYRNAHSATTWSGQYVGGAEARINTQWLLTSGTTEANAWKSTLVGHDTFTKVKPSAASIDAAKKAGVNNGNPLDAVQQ

What is called IC50 is the concentration that gives 50% inhibition.

In the case of `CCCNC(=O)c1ccc(S(N)(=O)=O)cc1` [4-sulfonamido benzoic acid propylamide], on human carbonic anhydrase, the IC50 was found to be 6 µM.
Turning to `N=C1N[C@H]2[C@H](CS[C@H]2CCCCC(=O)O)N1` [Iminobiotin], on streptavidin, the “affinity to streptavidin relative to biotin” value was “substantially reduced affinity”.
